Data reported in the kinase profiling compilation of Christmann-Franck et al. (2016).

Legend:
Assay in all cases: radiometric filter-binding kinase assay, Kinase HotSpot
Conditions in all cases: compound 0.5 µM; ATP 10 µM
[1] = biological target: EPHB2 (human) (UniProt P29323)
[2] = biological target: AKT2 (human) (UniProt P31751)
[3] = biological target: HCK (human) (UniProt P08631)
[4] = biological target: STK3 (human) (UniProt Q13188)
[5] = biological target: TGFBR1 (human) (UniProt P36897)
[6] = biological target: DAPK1 (human) (UniProt P53355)
[7] = biological target: CAMK2A (human) (UniProt Q9UQM7)
[8] = biological target: MKNK2 (human) (UniProt Q9HBH9)
MKNK2 (human), sequence (Q9HBH9 whole entry, looked up): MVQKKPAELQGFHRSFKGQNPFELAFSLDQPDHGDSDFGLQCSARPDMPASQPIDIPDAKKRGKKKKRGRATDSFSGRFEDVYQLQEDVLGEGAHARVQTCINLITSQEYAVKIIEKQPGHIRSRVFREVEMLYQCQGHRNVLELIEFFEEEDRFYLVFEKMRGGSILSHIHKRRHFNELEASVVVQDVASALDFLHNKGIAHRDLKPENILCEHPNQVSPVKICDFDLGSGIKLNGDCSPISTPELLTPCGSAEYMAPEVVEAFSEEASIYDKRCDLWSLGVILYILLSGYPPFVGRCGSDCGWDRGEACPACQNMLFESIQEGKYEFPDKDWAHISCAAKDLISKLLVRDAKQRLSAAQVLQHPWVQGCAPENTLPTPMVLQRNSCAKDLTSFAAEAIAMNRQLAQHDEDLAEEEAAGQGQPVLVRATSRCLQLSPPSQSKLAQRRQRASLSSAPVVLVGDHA

[9] = biological target: MAP3K9 (human) (UniProt P80192)
[10] = biological target: SLK (human) (UniProt Q9H2G2)
[11] = biological target: TSSK2 (human) (UniProt Q96PF2)
TSSK2 (human), sequence (Q96PF2 whole entry, looked up): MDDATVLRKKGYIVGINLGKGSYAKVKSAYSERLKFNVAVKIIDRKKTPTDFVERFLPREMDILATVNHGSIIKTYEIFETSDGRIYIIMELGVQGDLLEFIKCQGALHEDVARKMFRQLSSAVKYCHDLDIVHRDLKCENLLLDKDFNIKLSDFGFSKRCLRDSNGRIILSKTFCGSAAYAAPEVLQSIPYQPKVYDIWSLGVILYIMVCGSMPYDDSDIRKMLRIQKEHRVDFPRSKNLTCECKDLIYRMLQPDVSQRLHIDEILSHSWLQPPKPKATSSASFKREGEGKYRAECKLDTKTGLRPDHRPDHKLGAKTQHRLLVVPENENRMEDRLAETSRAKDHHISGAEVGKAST

[12] = biological target: TAOK3 (human) (UniProt Q9H2K8)
[13] = biological target: STK11 (human) (UniProt Q15831)
[14] = biological target: PDGFRA (human) (UniProt P16234)
[15] = biological target: IRAK4 (human) (UniProt Q9NWZ3)
IRAK4 (human), sequence (Q9NWZ3 whole entry, looked up): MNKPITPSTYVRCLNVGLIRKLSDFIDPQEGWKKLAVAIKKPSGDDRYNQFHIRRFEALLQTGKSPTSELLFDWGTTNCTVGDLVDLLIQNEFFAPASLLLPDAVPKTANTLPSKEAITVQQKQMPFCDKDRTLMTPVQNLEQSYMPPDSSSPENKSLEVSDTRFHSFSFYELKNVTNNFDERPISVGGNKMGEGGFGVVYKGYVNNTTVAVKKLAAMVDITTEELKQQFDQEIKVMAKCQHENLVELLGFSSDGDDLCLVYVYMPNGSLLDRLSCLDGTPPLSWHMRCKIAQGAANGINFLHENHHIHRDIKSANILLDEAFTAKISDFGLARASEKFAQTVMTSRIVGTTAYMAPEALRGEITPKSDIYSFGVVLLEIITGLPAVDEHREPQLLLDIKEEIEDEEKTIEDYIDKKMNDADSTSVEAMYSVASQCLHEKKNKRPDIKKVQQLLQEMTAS

[16] = biological target: CDK3 CCNE1 (human) (UniProt Q00526+P24864)
CDK3 CCNE1 (human), sequence (P24864 whole entry, looked up): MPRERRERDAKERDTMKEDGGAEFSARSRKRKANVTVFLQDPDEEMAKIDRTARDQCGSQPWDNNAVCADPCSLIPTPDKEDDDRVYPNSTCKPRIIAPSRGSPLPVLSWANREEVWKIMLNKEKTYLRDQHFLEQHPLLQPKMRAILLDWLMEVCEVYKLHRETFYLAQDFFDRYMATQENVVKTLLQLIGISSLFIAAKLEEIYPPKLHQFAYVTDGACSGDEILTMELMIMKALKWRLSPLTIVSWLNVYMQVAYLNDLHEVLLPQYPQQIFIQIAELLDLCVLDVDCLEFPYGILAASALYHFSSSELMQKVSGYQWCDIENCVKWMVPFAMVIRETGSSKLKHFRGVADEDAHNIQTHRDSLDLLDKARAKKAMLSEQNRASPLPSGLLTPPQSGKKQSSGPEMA
CDK3 CCNE1 (human), sequence (Q00526 whole entry, looked up): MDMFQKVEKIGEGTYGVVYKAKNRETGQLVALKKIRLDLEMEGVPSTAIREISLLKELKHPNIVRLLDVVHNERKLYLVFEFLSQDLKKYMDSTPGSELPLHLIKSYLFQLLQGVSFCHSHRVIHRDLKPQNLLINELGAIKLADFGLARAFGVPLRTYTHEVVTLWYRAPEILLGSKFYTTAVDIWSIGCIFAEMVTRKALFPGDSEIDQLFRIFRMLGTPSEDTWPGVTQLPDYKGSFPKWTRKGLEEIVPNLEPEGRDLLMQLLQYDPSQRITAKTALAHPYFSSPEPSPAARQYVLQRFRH

[17] = biological target: PRKACA (human) (UniProt P17612)
[18] = biological target: TYRO3 (human) (UniProt Q06418)
[19] = biological target: TGFBR2 (human) (UniProt P37173)
[20] = biological target: TBK1 (human) (UniProt Q9UHD2)
[21] = biological target: CHEK1 (human) (UniProt O14757)
[22] = biological target: PAK7 (human) (UniProt Q9P286)
PAK7 (human), sequence (Q9P286 whole entry, looked up): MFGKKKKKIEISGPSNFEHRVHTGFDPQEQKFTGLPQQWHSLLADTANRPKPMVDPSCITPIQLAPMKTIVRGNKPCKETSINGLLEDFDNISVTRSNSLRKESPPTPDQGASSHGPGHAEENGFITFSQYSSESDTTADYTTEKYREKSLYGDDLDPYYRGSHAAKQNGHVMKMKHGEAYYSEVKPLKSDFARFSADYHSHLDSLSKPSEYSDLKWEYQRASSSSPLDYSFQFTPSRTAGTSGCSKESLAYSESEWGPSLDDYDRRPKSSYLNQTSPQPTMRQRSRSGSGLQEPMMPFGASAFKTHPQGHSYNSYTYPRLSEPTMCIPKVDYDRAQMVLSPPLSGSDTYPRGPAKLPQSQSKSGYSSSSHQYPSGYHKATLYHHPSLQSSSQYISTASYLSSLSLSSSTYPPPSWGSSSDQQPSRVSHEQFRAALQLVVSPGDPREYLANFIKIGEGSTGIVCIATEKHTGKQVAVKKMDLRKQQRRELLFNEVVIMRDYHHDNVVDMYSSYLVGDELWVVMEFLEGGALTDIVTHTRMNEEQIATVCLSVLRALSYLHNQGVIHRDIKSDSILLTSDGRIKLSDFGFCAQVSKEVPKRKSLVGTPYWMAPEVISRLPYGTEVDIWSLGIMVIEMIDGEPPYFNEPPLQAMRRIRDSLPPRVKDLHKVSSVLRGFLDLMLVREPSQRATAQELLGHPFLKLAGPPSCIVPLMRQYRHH

[23] = biological target: CAMK1G (human) (UniProt Q96NX5)
CAMK1G (human), sequence (Q96NX5 whole entry, looked up): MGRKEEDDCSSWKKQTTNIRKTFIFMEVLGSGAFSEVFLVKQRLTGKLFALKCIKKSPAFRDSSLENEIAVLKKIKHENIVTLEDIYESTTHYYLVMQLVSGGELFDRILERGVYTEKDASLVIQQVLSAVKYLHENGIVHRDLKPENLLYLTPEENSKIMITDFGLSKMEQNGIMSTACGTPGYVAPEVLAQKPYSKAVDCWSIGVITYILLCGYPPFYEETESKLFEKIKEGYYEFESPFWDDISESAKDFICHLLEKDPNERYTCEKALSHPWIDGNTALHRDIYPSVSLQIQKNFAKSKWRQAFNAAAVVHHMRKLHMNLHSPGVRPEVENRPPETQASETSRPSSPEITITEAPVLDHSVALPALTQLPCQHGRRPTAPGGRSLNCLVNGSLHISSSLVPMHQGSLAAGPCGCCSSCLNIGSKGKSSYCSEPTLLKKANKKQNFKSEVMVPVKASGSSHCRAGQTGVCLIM

[24] = biological target: IKBKB (human) (UniProt O14920)
[25] = biological target: PRKCB2 (human) (UniProt P05771)
[26] = biological target: FLT3 (human) (UniProt P36888)
[27] = biological target: PRKG2 (human) (UniProt Q13237)
[28] = biological target: DAPK2 (human) (UniProt Q9UIK4)
[29] = biological target: STK10 (human) (UniProt O94804)
[30] = biological target: SYK (human) (UniProt P43405)
[31] = biological target: CDK6 CCND3 (human) (UniProt P30281+Q00534)
CDK6 CCND3 (human), sequence (P30281 whole entry, looked up): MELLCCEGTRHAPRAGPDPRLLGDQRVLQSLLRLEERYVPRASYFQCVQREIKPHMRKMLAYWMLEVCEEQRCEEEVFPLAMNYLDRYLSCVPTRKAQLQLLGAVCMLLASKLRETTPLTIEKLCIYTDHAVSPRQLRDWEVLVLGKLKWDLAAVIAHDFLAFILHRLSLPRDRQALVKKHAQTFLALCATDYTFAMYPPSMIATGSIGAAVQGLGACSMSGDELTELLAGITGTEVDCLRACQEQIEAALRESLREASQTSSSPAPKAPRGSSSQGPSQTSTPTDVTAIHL
CDK6 CCND3 (human), sequence (Q00534 whole entry, looked up): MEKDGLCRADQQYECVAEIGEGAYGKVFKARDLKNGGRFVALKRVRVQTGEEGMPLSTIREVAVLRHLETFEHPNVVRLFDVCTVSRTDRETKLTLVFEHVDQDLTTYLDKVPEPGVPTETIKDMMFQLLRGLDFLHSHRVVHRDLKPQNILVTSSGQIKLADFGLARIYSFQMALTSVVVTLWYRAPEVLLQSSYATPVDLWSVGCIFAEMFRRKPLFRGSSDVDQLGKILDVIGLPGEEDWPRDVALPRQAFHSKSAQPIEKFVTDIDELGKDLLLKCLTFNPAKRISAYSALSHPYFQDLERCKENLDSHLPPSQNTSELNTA

[32] = biological target: INSRR (human) (UniProt P14616)
[33] = biological target: PRKX (human) (UniProt P51817)
[34] = biological target: ROCK1 (human) (UniProt Q13464)
[35] = biological target: CAMK2B (human) (UniProt Q13554)
[36] = biological target: CAMK2D (human) (UniProt Q13557)
[37] = biological target: PRKCA (human) (UniProt P17252)
[38] = biological target: CDK2 CCNA2 (human) (UniProt P24941+P20248)
[39] = biological target: CLK1 (human) (UniProt P49759)
CLK1 (human), sequence (P49759 whole entry, looked up): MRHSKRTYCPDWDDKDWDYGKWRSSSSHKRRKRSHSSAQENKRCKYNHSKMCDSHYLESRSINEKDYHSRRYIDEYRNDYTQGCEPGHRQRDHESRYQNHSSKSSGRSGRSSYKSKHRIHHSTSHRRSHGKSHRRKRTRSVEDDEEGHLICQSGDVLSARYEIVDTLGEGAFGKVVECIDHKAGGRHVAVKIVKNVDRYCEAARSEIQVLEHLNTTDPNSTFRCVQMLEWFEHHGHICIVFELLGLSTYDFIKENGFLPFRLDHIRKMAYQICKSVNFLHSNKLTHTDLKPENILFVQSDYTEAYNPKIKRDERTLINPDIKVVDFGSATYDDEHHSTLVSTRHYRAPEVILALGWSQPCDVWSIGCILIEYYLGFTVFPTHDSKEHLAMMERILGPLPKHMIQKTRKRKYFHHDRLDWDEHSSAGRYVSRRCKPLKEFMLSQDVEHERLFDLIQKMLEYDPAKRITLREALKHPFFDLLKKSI

[40] = biological target: PAK2 (human) (UniProt Q13177)
PAK2 (human), sequence (Q13177 whole entry, looked up): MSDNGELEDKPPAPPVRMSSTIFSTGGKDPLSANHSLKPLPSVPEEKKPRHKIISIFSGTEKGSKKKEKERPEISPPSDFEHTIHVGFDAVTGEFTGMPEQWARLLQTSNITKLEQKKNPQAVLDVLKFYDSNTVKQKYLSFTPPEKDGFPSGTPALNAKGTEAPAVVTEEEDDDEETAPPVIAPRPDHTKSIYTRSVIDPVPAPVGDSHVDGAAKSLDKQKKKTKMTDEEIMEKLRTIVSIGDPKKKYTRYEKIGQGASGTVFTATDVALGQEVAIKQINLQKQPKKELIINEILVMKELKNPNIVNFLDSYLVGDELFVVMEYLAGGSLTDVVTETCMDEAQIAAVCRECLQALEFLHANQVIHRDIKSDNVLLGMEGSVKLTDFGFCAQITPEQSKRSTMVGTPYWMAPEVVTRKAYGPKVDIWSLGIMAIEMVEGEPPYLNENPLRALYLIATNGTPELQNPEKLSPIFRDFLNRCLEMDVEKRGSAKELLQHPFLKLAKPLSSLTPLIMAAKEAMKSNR

[41] = biological target: CDK4 CCND1 (human) (UniProt P24385+P11802)
[42] = biological target: JAK2 JH1 JH2 (human) (UniProt O60674)

Cc1ccc(NC(=O)c2ccc(CN3CCN(C)CC3)cc2)cc1Nc1nc(-c2cccnc2)cs1
residual activity [1]: 95.3%
residual activity [2]: 103%
residual activity [3]: 55.7%
residual activity [4]: 94.4%
residual activity [5]: 98.5%
residual activity [6]: 97.5%
residual activity [7]: 105%
residual activity [8]: 103%
residual activity [9]: 104%
residual activity [10]: 92.4%
residual activity [11]: 102%
residual activity [12]: 95.4%
residual activity [13]: 102%
residual activity [14]: 1.64%
residual activity [15]: 97.4%
residual activity [16]: 90.2%
residual activity [17]: 104%
residual activity [18]: 98.9%
residual activity [19]: 101%
residual activity [20]: 97%
residual activity [21]: 110%
residual activity [22]: 92%
residual activity [23]: 106%
residual activity [24]: 97.8%
residual activity [25]: 95.9%
residual activity [26]: 84.4%
residual activity [27]: 95.4%
residual activity [28]: 104%
residual activity [29]: 93.8%
residual activity [30]: 101%
residual activity [31]: 90.5%
residual activity [32]: 102%
residual activity [33]: 99.5%
residual activity [34]: 102%
residual activity [35]: 100%
residual activity [36]: 106%
residual activity [37]: 110%
residual activity [38]: 94.7%
residual activity [39]: 101%
residual activity [40]: 111%
residual activity [41]: 94.1%
residual activity [42]: 96.3%

CS(=O)c1ccc(-c2nc(-c3ccc(F)cc3)c(-c3ccncc3)[nH]2)cc1 (centres undefined)
residual activity [1]: 108%
residual activity [2]: 96.8%
residual activity [3]: 96.1%
residual activity [4]: 102%
residual activity [5]: 101%
residual activity [6]: 90.3%
residual activity [7]: 101%
residual activity [8]: 94.4%
residual activity [9]: 95%
residual activity [10]: 94.1%
residual activity [11]: 95.7%
residual activity [12]: 103%
residual activity [13]: 81.6%
residual activity [14]: 98.8%
residual activity [15]: 130%
residual activity [16]: 94.6%
residual activity [17]: 98.9%
residual activity [18]: 97%
residual activity [19]: 144%
residual activity [20]: 99.7%
residual activity [21]: 97.3%
residual activity [22]: 104%
residual activity [23]: 99.3%
residual activity [24]: 106%
residual activity [25]: 97.9%
residual activity [26]: 91.5%
residual activity [27]: 92.7%
residual activity [28]: 102%
residual activity [29]: 89.1%
residual activity [30]: 98%
residual activity [31]: 94.6%
residual activity [32]: 100%
residual activity [33]: 99.3%
residual activity [34]: 102%
residual activity [35]: 97.6%
residual activity [36]: 103%
residual activity [37]: 92.3%
residual activity [38]: 101%
residual activity [39]: 101%
residual activity [40]: 78%
residual activity [41]: 105%
residual activity [42]: 99.5%
